Reference: patent US20190218187A1, “Novel 5-substituted imidazolylmethyl derivatives” (Bayer CropScience Aktiengesellschaft, priority 2016, published 2019)
Read-outs that look alike come from different tables or passages of the source.

What was measured:
[1] = LogP by HPLC on reversed phase columns (EEC directive 79/831 Annex V.A8); type: physicochemical; conditions: method [a]: LC-UV, acidic range, 0.1% formic acid in water and acetonitrile as eluent (linear gradient 10% to 95% acetonitrile); for chromatographic logP: reversed phase HPLC column
Procedure: [table] If more than one LogP value is available within the same method, all the values are given and separated by “+”. Calibration was done with straight-chain alkan2-ones (with 3 to 16 carbon atoms) with known LogP values (measurement of LogP values using retention times with linear interpolation between successive alkanones). Lambda-max-values were determined using UV-spectra from 200 nm to 400 nm and the peak values of the chromatographic signals.

Septoria tritici = test: In vivo preventive test on Septoria tritici (leaf spot on wheat); conditions: Zymoseptoria tritici, 576 h, read-out: efficacy
Procedure: Example B: In Vivo Preventive Test on Septoria tritici (Leaf Spot on Wheat)
(§1) The active ingredients are made soluble and homogenized in a mixture of Dimethyl sulfoxide/Acetone/Tween® 80 and then diluted in water to the desired concentration.
The young plants of wheat are treated by spraying the active ingredient prepared as described above. Control plants are treated only with an aqueous solution of Acetone/Dimethyl sulfoxide/Tween® 80.
After 24 hours, the plants are contaminated by spraying the leaves with an aqueous suspension of Septoria tritici spores. The contaminated wheat plants are incubated for 72 hours at 18° C. and at 100% relative humidity and then for 21 days at 20° C. and at 90% relative humidity.
The test is evaluated 24 days after the inoculation. 0% means an efficacy which corresponds to that of the control plants while an efficacy of 100% means that no disease is observed.

Sphaerotheca fuliginea = test: In vivo preventive test on Sphaerotheca fuliginea (powdery mildew on cucurbits); conditions: Podosphaera fuliginea, 360 h, read-out: efficacy
Procedure: Example C: In Vivo Preventive Test on Sphaerotheca fuliginea (Powdery Mildew on Cucurbits)
as §1
The young plants of gherkin are treated by spraying the active ingredient prepared as described above. Control plants are treated only with an aqueous solution of Acetone/Dimethyl sulfoxide/Tween® 80.
After 24 hours, the plants are contaminated by spraying the leaves with an aqueous suspension of Sphaerotheca fuliginea spores. The contaminated gherkin plants are incubated for 72 hours at 18° C. and at 100% relative humidity and then for 12 days at 20° C. and at 70-80% relative humidity.
The test is evaluated 15 days after the inoculation. 0% means an efficacy which corresponds to that of the control plants while an efficacy of 100% means that no disease is observed.

[2] = 500 ppm of active ingredient, wheat plants, preventive spray, evaluated 24 days after inoculation, 100% = no disease
[3] = 500 ppm of active ingredient, gherkin plants, preventive spray, evaluated 15 days after inoculation, 100% = no disease

Row | SMILES | LogP [1] | other results
1 | CC(C)(C)C(O)(CCc1ccc(Cl)cc1)Cn1cncc1F (stereo not drawn) [I-06, 1-(4-chlorophenyl)-3-[(5-fluoroimidazol-1-yl)methyl]-4,4-dimethyl-pentan-3-ol] | – | chromatographic logP [1]: 2.25; pest or weed control at 500 ppm (Septoria tritici; [2]): 80 to 89%; pest or weed control at 500 ppm (Sphaerotheca fuliginea; [3]): 90 to 100%
2 | CC(C)(CC(O)(Cn1cncc1C#N)C1(Cl)CC1)c1ccccc1 (stereo not drawn) [I-13, 1-[2-(1-chlorocyclopropyl)-2-hydroxy-4-methyl-4-phenylpentyl]-1H-imidazole-5-carbonitrile] | – | chromatographic logP [1]: 3.09; pest or weed control at 500 ppm (Septoria tritici): 90 to 100%; pest or weed control at 500 ppm (Sphaerotheca fuliginea): 90 to 100%
3 | N#Cc1cncn1CC(O)(CCc1ccc(OC(F)(F)F)cc1)C1(F)CC1 (stereo not drawn) [I-14] | 3.29 ^[a] | –
4 | N#Cc1cncn1CC(O)(CCc1ccc(Cl)cc1)C1(Cl)CC1 (stereo not drawn) [I-18, 3-[2-(1-chlorocyclopropyl)-4-(4-chlorophenyl)-2-hydroxy-butyl]imidazole-4-carbonitrile] | – | chromatographic logP [1]: 3.42; pest or weed control at 500 ppm (Septoria tritici; [2]): 90 to 100%; pest or weed control at 500 ppm (Sphaerotheca fuliginea; [3]): 90 to 100%
5 | N#Cc1cncn1CC(O)(CCc1cccnc1)C1(F)CC1 (stereo not drawn) [I-23] | 0.53 ^[a] | –
6 | Cc1ccc(CCC(O)(Cn2cncc2C#N)C(C)(C)C)cc1 (stereo not drawn) [I-29] | 3.22 ^[a] | –
7 | N#Cc1cncn1CC(O)(CCc1ccccc1)CC1CC1 (stereo not drawn) [I-42] | 2.62 ^[a] | –
8 | N#Cc1cncn1CC(O)(CCc1ccc(F)nc1)C1(Cl)CC1 (stereo not drawn) [I-33] | 2.20 ^[a] | –
9 | N#Cc1cncn1CC(O)(CCc1ccc(Cl)nc1)C1(Cl)CC1 (stereo not drawn) [I-28, 3-[2-(1-chlorocyclopropyl)-4-(6-chloro-3-pyridyl)-2-hydroxy-butyl]imidazole-4-carbonitrile] | – | chromatographic logP [1]: 2.39; pest or weed control at 500 ppm (Septoria tritici; [2]): 90 to 100%; pest or weed control at 500 ppm (Sphaerotheca fuliginea; [3]): 90 to 100%
10 | CC(C)C(O)(CCc1ccccc1)Cn1cncc1C#N (stereo not drawn) [I-36] | 2.53 ^[a] | –
11 | N#Cc1cncn1CC(O)(CCc1ccc(Cl)cc1F)C1(F)CC1 (stereo not drawn) [I-25] | 3.00 ^[a] | –
12 | CC(C)(C)C(O)(CCc1ccc(C(F)(F)F)cc1)Cn1cncc1C#N (stereo not drawn) [I-41] | 3.42 ^[a] | –
13 | N#Cc1cncn1CC(O)(CCc1ccc(Cl)cc1F)c1ccc(Cl)cc1 (stereo not drawn) [I-44] | 3.64 ^[a] | –
14 | N#Cc1cncn1CC(O)(CCc1ccccc1)c1ccc(Cl)cc1F (stereo not drawn) [I-49] | 3.37 ^[a] | –
15 | N#Cc1cncn1CC(O)(CCc1ccc(Cl)cc1F)c1ccccc1 (stereo not drawn) [I-52] | 3.23 ^[a] | –
16 | N#Cc1cncn1CC(O)(CCc1ccccc1)C1(Cl)CC1 (stereo not drawn) [I-07] | 2.88 ^[a] | –
17 | N#Cc1cncn1CC(O)(CCc1ccc(Cl)cc1)c1ccccc1 (stereo not drawn) [I-46, 3-[4-(4-chlorophenyl)-2-hydroxy-2-phenyl-butyl]imidazole-4-carbonitrile] | – | chromatographic logP [1]: 3.13; pest or weed control at 500 ppm (Septoria tritici; [2]): 90 to 100%; pest or weed control at 500 ppm (Sphaerotheca fuliginea; [3]): 90 to 100%
18 | CC(C)(C)C(O)(CCc1ccc(Cl)cc1)Cn1cncc1C#N (stereo not drawn) [I-02, 3-[2-[2-(4-chlorophenyl)ethyl]-2-hydroxy-3,3-dimethyl-butyl]imidazole-4-carbonitrile] | – | chromatographic logP [1]: 3.31; pest or weed control at 500 ppm (Septoria tritici; [2]): 90 to 100%; pest or weed control at 500 ppm (Sphaerotheca fuliginea; [3]): 90 to 100%
19 | N#Cc1cncn1CC(O)(CCC1Cc2ccccc2O1)C1(F)CC1 (stereo not drawn) [I-53, 1-[4-(2,3-dihydro-1-benzofuran-2-yl)-2-(1-fluorocyclopropyl)-2-hydroxybutyl]-1H-imidazole-5-carbonitrile] | – | chromatographic logP [1]: 2.61

Row | SMILES | LogP [1] | other results
20 | CC(C)(C)C(O)(CCc1ccc(Cl)cc1)Cn1cncc1Cl (stereo not drawn) [I-04] | 2.78 ^[a] | –
21 | N#Cc1cncn1CC(O)(CCc1ccc(OC(F)(F)F)c(F)c1)C1(Cl)CC1 (stereo not drawn) [I-16] | 3.69 ^[a] | –
22 | N#Cc1cncn1CC(O)(CCc1ccc(F)nc1)C1(F)CC1 (stereo not drawn) [I-34] | 1.88 ^[a] | –
23 | N#Cc1cncn1CC(O)(CCc1ccc(Cl)cc1)c1ccc(Cl)cc1 (stereo not drawn) [I-40] | 3.96 ^[a] | –
24 | N#Cc1cncn1CC(O)(CCc1ccccc1)c1ccccc1 (stereo not drawn) [I-45] | 2.74 ^[a] | –
25 | N#Cc1cncn1CC(O)(CCc1ccccc1)C1(F)CC1 (stereo not drawn) [I-10, 3-[2-(1-fluorocyclopropyl)-2-hydroxy-4-phenyl-butyl]imidazole-4-carbonitrile] | – | chromatographic logP [1]: 2.53; pest or weed control at 500 ppm (Septoria tritici; [2]): 90 to 100%; pest or weed control at 500 ppm (Sphaerotheca fuliginea; [3]): 90 to 100%
26 | CC(C)(C)C(O)(CCc1ccccc1)Cn1cncc1C#N (stereo not drawn) [I-20] | 2.90 ^[a] | –
27 | N#Cc1cncn1CC(O)(CCc1ccccc1)c1ccc(Cl)cc1 (stereo not drawn) [I-39] | 3.46 ^[a] | –
28 | N#Cc1cncn1CC(O)(CCc1ccc(Cl)cc1)c1ccc(Cl)cc1F (stereo not drawn) [I-51] | 3.79 ^[a] | –
29 | N#Cc1cncn1CC(O)(CCc1ccccc1)C1CCC1 (stereo not drawn) [I-38] | 2.80 ^[a] | –
30 | N#Cc1cncn1CC(O)(CCc1ccc(Cl)cc1F)c1ccc(Cl)cc1F (stereo not drawn) [I-50] | 3.75 ^[a] | –
31 | N#Cc1cncn1CC(O)(CCc1ccc(C(F)(F)F)cc1)C1(F)CC1 (stereo not drawn) [I-03, 3-[2-(1-fluorocyclopropyl)-2-hydroxy-4-[4-(trifluoromethyl)phenyl]butyl]imidazole-4-carbonitrile] | – | chromatographic logP [1]: 3.15; pest or weed control at 500 ppm (Septoria tritici; [2]): 90 to 100%; pest or weed control at 500 ppm (Sphaerotheca fuliginea; [3]): 90 to 100%
32 | CC(C)(C)C(O)(CCc1ccc(Cl)cc1)Cn1cncc1Br (stereo not drawn) [I-11] | 2.75 ^[a] | –
33 | N#Cc1cncn1CC(O)(CCc1ccc(Cl)cc1F)C1(Cl)CC1 (stereo not drawn) [I-32] | 3.41 ^[a] | –
34 | N#Cc1cncn1CC(O)(CCc1ccc(F)cc1F)C1(F)CC1 (stereo not drawn) [I-15] | 2.69 ^[a] | –
35 | N#Cc1cncn1CC(O)(CCc1ccccc1)C1CC1 (stereo not drawn) [I-31] | 2.49 ^[a] | –
36 | CC(C)(C)C(O)(CCc1ccc(Cl)cc1)Cn1cncc1C=O (stereo not drawn) [I-05] | 3.02 ^[a] | –
37 | N#Cc1cncn1CC(O)(CCc1ccccc1F)C1(F)CC1 (stereo not drawn) [I-26] | 2.56 ^[a] | –

Continued, in another order:

Row | LogP [1] | SMILES | other results
38 | 2.73 ^[a] | OC(CCc1ccc(Cl)cc1)(Cn1cncc1Cl)C1(Cl)CC1 (stereo not drawn) [I-12] | –
39 | 3.23 ^[a] | N#Cc1cncn1CC(O)(CCc1ccc(Cl)cc1)C1CCC1 (stereo not drawn) [I-37] | –
40 | 3.78 ^[a] | CC(C)(C)c1ccc(CCC(O)(Cn2cncc2C#N)C2(F)CC2)cc1 (stereo not drawn) [I-09] | –
41 | 2.90 ^[a] | N#Cc1cncn1CC(O)(CCc1ccc(Cl)cc1)C1CC1 (stereo not drawn) [I-30] | –
42 | 3.23 ^[a] | Cc1ccc(CCC(O)(Cn2cncc2C#N)C2(Cl)CC2)cc1 (stereo not drawn) [I-19] | –
43 | 2.03 ^[a] | N#Cc1cncn1CC(O)(CCc1ccc(Cl)nc1)C1(F)CC1 (stereo not drawn) [I-27] | –
44 | 3.55 ^[a] | CC1(c2ccc(CCC(O)(Cn3cncc3C#N)C3(F)CC3)cc2)CC1 (stereo not drawn) [I-21] | –
45 | 2.95 ^[a] | CC(C)C(O)(CCc1ccc(Cl)cc1)Cn1cncc1C#N (stereo not drawn) [I-35] | –
46 | 2.98 ^[a] | N#Cc1cncn1CC(O)(CCc1ccc(Cl)cc1)C1(F)CC1 (stereo not drawn) [I-22] | –
47 | 3.48 ^[a] | N#Cc1cncn1CC(O)(CCc1ccc(C(F)(F)F)cc1)C1(Cl)CC1 (stereo not drawn) [I-08] | –
48 | 3.02 ^[a] | N#Cc1cncn1CC(O)(CCc1ccc(Cl)cc1)CC1CC1 (stereo not drawn) [I-43] | –
49 | 4.03 ^[a] | CC1(c2ccc(CCC(O)(Cn3cncc3C#N)C3(Cl)CC3)cc2)CC1 (stereo not drawn) [I-24] | –
50 | 2.80 ^[a] | CC1(C(O)(CCc2ccccc2)Cn2cncc2C#N)CC1 (stereo not drawn) [I-47] | –
51 | 4.18 ^[a] | CC(C)(C)c1ccc(CCC(O)(Cn2cncc2C#N)C2(Cl)CC2)cc1 (stereo not drawn) [I-01] | –
52 | 3.22 ^[a] | CC1(C(O)(CCc2ccc(Cl)cc2)Cn2cncc2C#N)CC1 (stereo not drawn) [I-48] | –
53 | 2.90 ^[a] | Cc1ccc(CCC(O)(Cn2cncc2C#N)C2(F)CC2)cc1 (stereo not drawn) [I-17] | –
